Measurements taken from the NIST ThermoML archive (doi:10.1016/j.jct.2015.11.025).
± gives the expanded uncertainty stated by the source.

Legend:
[1] = Crystal
[2] = Molar enthalpy of transition or fusion; details: Crystal; DSC

mass density ([1]; 298.15 K, 101.33 kPa, flotation method): 1297 ± 2 kg/m3
Normal melting temperature ([1]; DTA): 136.90 ± 1.1 °C
Molar enthalpy of transition or fusion [2]: 9.77 ± 0.263 kcal/mol
SMILES: CCOC(=O)Cc1c(C(=O)OCC)sc(N)c1C#N
